In patent US6723753B2, “Substituted n-benzyl-n-phenyl aminoalcohol compounds useful for inhibiting cholesteryl ester transfer protein activity” (Pharmacia Corporation, priority 2002, dated 2004):

Legend:
[1] = target: T1, CETP (Homo sapiens, UniProt P11597); test: Assay of CETP Inhibition using Purified Components (Reconstituted Buffer Assay); format: biochemical; parameters: made in house; host or cells: CHO cells (serum-free conditioned medium); details: Inhibition of CETP activity in reconstituted buffer assay; transfer of [3H]CE from HDL to LDL; read-out: IC50
T1 sequence (P11597 18-493): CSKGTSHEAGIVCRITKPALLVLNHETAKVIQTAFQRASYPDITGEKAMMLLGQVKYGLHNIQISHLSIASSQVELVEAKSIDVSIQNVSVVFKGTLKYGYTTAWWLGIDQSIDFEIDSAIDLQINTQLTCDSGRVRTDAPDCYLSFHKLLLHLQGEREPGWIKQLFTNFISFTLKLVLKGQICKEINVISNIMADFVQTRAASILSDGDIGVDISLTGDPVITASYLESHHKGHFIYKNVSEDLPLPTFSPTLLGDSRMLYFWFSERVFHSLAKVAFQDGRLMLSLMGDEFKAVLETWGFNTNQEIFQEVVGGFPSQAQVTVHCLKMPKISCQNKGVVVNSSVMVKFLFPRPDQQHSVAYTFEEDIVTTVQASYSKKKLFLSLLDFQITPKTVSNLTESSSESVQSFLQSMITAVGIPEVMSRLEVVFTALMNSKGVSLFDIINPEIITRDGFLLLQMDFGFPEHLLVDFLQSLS
Summary of the method: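 Purified human recombinant CETP from transfected CHO cells was incubated with [^3H]CE-labeled HDL donor and LDL acceptor in Tris pH 7.4/NaCl/EDTA/1% BSA buffer for 2 h at 37 °C. LDL was then precipitated with dextran sulfate/MgCl2, filtered, and counted by liquid scintillation to give IC50 for CE transfer.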

[2] = target: T1, CETP; test: Assay of CETP Inhibition in Human Plasma; format: biochemical; parameters: Blood was obtained from healthy volunteers, recruited from the personnel of Monsanto Company; from tissue; host or cells: human EDTA plasma pool from healthy volunteers; details: transfer of [3H]CE from HDL to VLDL and LDL
Method: Assay of CETP Inhibition in Human Plasma
Blood was obtained from healthy volunteers, recruited from the personnel of Monsanto Company, Saint Louis, Mo. Blood was collected in tubes containing EDTA (EDTA plasma pool). The EDTA human plasma pool, previously stored at −20° C., was thawed at room temperature and centrifuged for 5 minutes to remove any particulate matter. […] Equal volumes (396 μL) of the plasma containing the [^3H]CE-HDL were added by pipette into micro tubes (Titertube®, Bio-Rad laboratories, Hercules, Calif.). Inhibitor compounds, dissolved as 20-50 mM stock solutions in DMSO, were serially diluted in DMSO (or an alternative solvent in some cases, such as dimethylformamide or ethanol). Four μL of each of the serial dilutions of inhibitor compounds or DMSO alone were then added to each of the tubes containing plasma (396 μL). After mixing, triplicate aliquots (100 μL) from each plasma tube were then transferred to wells of 96-well round-bottomed polystyrene microtiter plates (Corning, Corning, N.Y.). Plates were sealed with plastic film and incubated at 37° C. for 4 hours. “Test” samples contained plasma with dilutions of inhibitor compounds. “Control” samples contained plasma with DMSO diluted to the same concentration as the test samples, but without inhibitor. “Blank” samples were prepared as “control” samples, but were left in the micro tubes at 4° C. for the 4 hour incubation and were then added to the microtiter wells at the end of the incubation period. VDL and LDL were precipitated by the addition of 10 μL of precipitating reagent (1% (w/v) dextran sulfate (Dextralip50)/0.5 M magnesium chloride, pH 7.4) to all wells. The wells were mixed on a plate mixer and then incubated at ambient temperature for 10 min. The plates were then centrifuged at 1000× g for 30 min at 10° C. The supernatants (50 μL) from each well were then transferred to Picoplate™ 96 plate wells (Packard, Meriden, Conn.) containing Microscint™-40 (Packard, Meriden, Conn.). The plates were heat-sealed (TopSeal™-P, Packard, Meriden, Conn.) according to the manufacturer's directions and mixed for 30 min. Radioactivity was measured on a microplate scintillation counter (TopCount, Packard, Meriden, Conn.). The maximum percentage transfer in the control wells (% transfer) was determined using the following equation: [formula]
The percentage of transfer relative to the control (% control) was determined in the wells containing inhibitor compounds was determined as follows: [formula]
IC50 values were then calculated from plots of % control versus concentration of inhibitor compound.

[3] = Inhibition of CETP activity in human plasma assay, read-out: IC50

Structure (SMILES)	IC50 [1] [nM]	IC50 [2, 3] [nM]	IC50 ([2]; IC50, Inhibition of CETP activity in human plasma assay) [nM]
OC(CN(Cc1cccc(OC(F)(F)C(F)F)c1)c1cccc(Oc2ccc(Cl)cc2F)c1)C(F)(F)F (centres unmarked) [Example 265]	330	9600	–
CSc1ccc(Oc2cccc(N(Cc3cccc(OC(F)(F)C(F)F)c3)CC(O)C(F)(F)F)c2)cc1 (centres unmarked) [Example 267]	1000	27000	–
COc1cc(OC)cc(Oc2cccc(N(Cc3cccc(OC(F)(F)C(F)F)c3)CC(O)C(F)(F)F)c2)c1 (centres unmarked) [Example 268]	580	37000	–
OC(CN(Cc1cccc(OC(F)(F)C(F)F)c1)c1cccc(Oc2ccc(Br)cc2)c1)C(F)(F)F (centres unmarked) [Example 269]	590	22000	–
CSc1ccc(Oc2cccc(N(Cc3cccc(OC(F)(F)C(F)F)c3)CC(O)C(F)(F)F)c2)cc1C (centres unmarked) [Example 271]	500	34000	–
OC(CN(Cc1cccc(OC(F)(F)C(F)F)c1)c1cccc(Oc2cncc(Cl)c2)c1)C(F)(F)F (centres unmarked) [Example 287]	500	22000	–
COc1ccc(Nc2cccc(N(Cc3cccc(OC(F)(F)C(F)F)c3)CC(O)C(F)(F)F)c2)cc1 (centres unmarked) [Example 292, 3-[[3-[(4-methoxyphenyl)amino]phenyl]-[[3-(1,1,2,2-tetrafluoro-ethoxy)phenyl]methyl]amino]-1,1,1-trifluoro-2-propanol]	590	38000	–
OC(CN(Cc1cccc(OC(F)(F)C(F)F)c1)c1cccc(Nc2ccc(F)cc2)c1)C(F)(F)F (centres unmarked) [Example 293]	1000	42000	–
OC(CN(Cc1cccc(OC(F)(F)C(F)F)c1)c1cccc(Nc2ccccc2)c1)C(F)(F)F (centres unmarked) [Example 294]	880	30000	–
OC(CN(Cc1cccc(OC(F)(F)C(F)F)c1)c1cccc(Nc2ccc(Cl)cc2)c1)C(F)(F)F (centres unmarked) [Example 296]	1300	86000	–
N#Cc1ccc(Nc2cccc(N(Cc3cccc(OC(F)(F)C(F)F)c3)CC(O)C(F)(F)F)c2)cc1 (centres unmarked) [Example 297]	4400	> 100000	–
CCCc1ccc(Nc2cccc(N(Cc3cccc(OC(F)(F)C(F)F)c3)CC(O)C(F)(F)F)c2)cc1 (centres unmarked) [Example 299]	2300	> 100000	–
N#Cc1cccc(Nc2cccc(N(Cc3cccc(OC(F)(F)C(F)F)c3)CC(O)C(F)(F)F)c2)c1 (centres unmarked) [Example 302]	2500	> 100000	–
OC(CN(Cc1cccc(OC(F)(F)C(F)F)c1)c1cccc(Nc2cccc(Cl)c2)c1)C(F)(F)F (centres unmarked) [Example 304]	1900	76000	–
COc1cccc(Nc2cccc(N(Cc3cccc(OC(F)(F)C(F)F)c3)CC(O)C(F)(F)F)c2)c1 (centres unmarked) [Example 305]	1200	76000	–
OC(CN(Cc1cccc(OC(F)(F)C(F)F)c1)c1cccc(Nc2cc(F)cc(F)c2)c1)C(F)(F)F (centres unmarked) [Example 307]	2000	81000	–
COc1ccc(Nc2cccc(N(Cc3cccc(OC(F)(F)C(F)F)c3)CC(O)C(F)(F)F)c2)cc1OC (centres unmarked) [Example 309]	2600	> 100000	–
OC(CN(Cc1cccc(OC(F)(F)C(F)F)c1)c1cccc(NCc2cccc(C(F)(F)F)c2)c1)C(F)(F)F (centres unmarked) [Example 311]	2600	> 100000	–
CCN(c1cccc(C)c1)c1cccc(N(Cc2cccc(OC(F)(F)C(F)F)c2)CC(O)C(F)(F)F)c1 (centres unmarked) [Example 312]	1800	65000	–
OC(CN(Cc1cccc(I)c1)c1cccc(OC(F)(F)F)c1)C(F)(F)F (centres unmarked) [Example 322]	3000	> 100000	–

Structure (SMILES)	IC50 [1] [nM]	IC50 [2, 3] [nM]	IC50 ([2]; IC50, Inhibition of CETP activity in human plasma assay) [nM]
OC(CN(Cc1cccc(OC(F)(F)C(F)F)c1)c1cccc(OCc2cc(C(F)(F)F)cc(C(F)(F)F)c2)c1)C(F)(F)F (centres unmarked) [Example 377]	230	24000	–
OC(CN(Cc1cccc(OC(F)(F)C(F)F)c1)c1cccc(OCc2cc(F)cc(F)c2)c1)C(F)(F)F (centres unmarked) [Example 378]	200	12000	–
OC(CN(Cc1cccc(OC(F)(F)C(F)F)c1)c1cccc(OCc2cccc(C(F)(F)F)c2)c1)C(F)(F)F (centres unmarked) [Example 379]	98	–	7700
Cc1ccc(COc2cccc(N(Cc3cccc(OC(F)(F)C(F)F)c3)CC(O)C(F)(F)F)c2)cc1 (centres unmarked) [Example 385]	420	29000	–
OC(CN(Cc1cccc(OC(F)(F)C(F)F)c1)c1cccc(OCc2ccc(OC(F)F)cc2)c1)C(F)(F)F (centres unmarked) [Example 389]	700	> 50000	–
OC(CN(Cc1cccc(OC(F)(F)C(F)F)c1)c1cccc(OCc2ccccc2F)c1)C(F)(F)F (centres unmarked) [Example 390]	340	24000	–
OC(CN(Cc1cccc(OC(F)(F)C(F)F)c1)c1cccc(OCc2ccc(F)cc2)c1)C(F)(F)F (centres unmarked) [Example 391]	560	25000	–
OC(CN(Cc1cccc(OC(F)(F)C(F)F)c1)c1cccc(OCc2cccc(Cl)c2F)c1)C(F)(F)F (centres unmarked) [Example 393]	820	5000	–
OC(CN(Cc1cccc(OC(F)(F)C(F)F)c1)c1cccc(OCc2ccc(F)cc2F)c1)C(F)(F)F (centres unmarked) [Example 395]	1100	10000	–
OC(CN(Cc1cccc(OC(F)(F)C(F)F)c1)c1cccc(OCc2ccc(C(F)(F)F)cc2C(F)(F)F)c1)C(F)(F)F (centres unmarked) [Example 396]	860	10000	–
OC(CN(Cc1cccc(OC(F)(F)C(F)F)c1)c1cccc(OCc2cc(F)ccc2F)c1)C(F)(F)F (centres unmarked) [Example 397]	810	10000	–
OC(CN(Cc1cccc(OC(F)(F)C(F)F)c1)c1cccc(OCc2cccc(F)c2F)c1)C(F)(F)F (centres unmarked) [Example 399]	350	3400	–
OC(CN(Cc1cccc(OC(F)(F)C(F)F)c1)c1cccc(OCc2cccc(C(F)(F)F)c2F)c1)C(F)(F)F (centres unmarked) [Example 400]	210	6300	–
OC(CN(Cc1cccc(OC(F)(F)C(F)F)c1)c1cccc(OCc2cccc(Br)c2)c1)C(F)(F)F (centres unmarked) [Example 401]	180	4200	–
Cc1cccc(COc2cccc(N(Cc3cccc(OC(F)(F)C(F)F)c3)CC(O)C(F)(F)F)c2)c1 (centres unmarked) [Example 402]	330	2900	–
OC(CN(Cc1cccc(OC(F)(F)C(F)F)c1)c1cccc(OCc2cccc(I)c2)c1)C(F)(F)F (centres unmarked) [Example 405]	600	6200	–
CC(Oc1cccc(N(Cc2cccc(OC(F)(F)C(F)F)c2)CC(O)C(F)(F)F)c1)c1ccccc1 (centres unmarked) [Example 429]	440	4400	–
O=[N+]([O-])c1ccccc1Oc1cccc(N(Cc2cccc(OC(F)(F)C(F)F)c2)CC(O)C(F)(F)F)c1 (centres unmarked) [Example 436, 3-[[3-(2-nitrophenoxy)phenyl][[3-(1,1,2,2-tetrafluoroethoxy)phenyl]-methyl]amino]-1,1,1-trifluoro-2-propanol]	420	14000	–
O=[N+]([O-])c1cc(Br)ccc1Oc1cccc(N(Cc2cccc(OC(F)(F)C(F)F)c2)CC(O)C(F)(F)F)c1 (centres unmarked) [Example 439]	1000	13000	–
O=[N+]([O-])c1c(F)cccc1Oc1cccc(N(Cc2cccc(OC(F)(F)C(F)F)c2)CC(O)C(F)(F)F)c1 (centres unmarked) [Example 440]	770	24000	–
